# Experimental data published in patent US11752180B2, “Intestinal protectant” (National University Corporation Asahikawa Medical University, priority 2010, dated 2023).
# Where no end group is shown, it is not given here.
# Tested on: integrin (integrin β)
# Assay: Interaction between polyphosphoric acid and integrin: mannitol ex vivo loop assay with peptide antagonist of integrin
# Design: species or system mouse
# Experimental: Using a peptide antagonist of integrin, the interaction between polyphosphoric acid and integrin was analyzed. For the peptide antagonist of integrin, the peptide having the amino acid sequence of Gly-Arg-Gly-Asp-Thr-Pro (GRGDTP) (hereinafter also referred to as “GRGDTP”) was used. GRGDTP has the sequence of Arg-Gly-Asp (RGD), which is recognized by integrin β.
# The intestinal tract permeability experiment on mannitol by ex vivo loop assay was carried out in the same manner as in Example 9 and Example 11 except that GRGDTP was added in a concentration of 100 μg/ml, in addition to the enzymatically synthesized polyphosphoric acid or the chemically synthesized polyphosphoric acid, to the PBS solution to be filled in the intestinal tract, and the intestinal tract barrier function was evaluated.
substance,measurement,setting,value
GRGDTP [peptide antagonist of integrin],effect of GRGDTP on the intestinal tract barrier effect of chemically synthesized polyphosphoric acid (mannitol leakage),GRGDTP 100 μg/ml in combination with chemically synthesized polyphosphoric acid,had the same result
same,effect of GRGDTP on the intestinal tract barrier effect of enzymatically synthesized polyphosphoric acid (mannitol leakage),GRGDTP 100 μg/ml in combination with enzymatically synthesized polyphosphoric acid,remarkably inhibited
